Data on 1 molecule can be found in US20240343855A1, “PROCESS FOR THE PREPARATION OF POLYCARBODIIMIDES WITH AZIRIDINE FUNCTIONS, WHICH MAY BE USED AS CROSSLINKING AGENT” (Stahl International B.V., priority 2021, published 2024).

Data set [1] relates to Bscl2-GFP reporter. It is filed as cell-based, mouse. The settings on record: 24 h exposure; in absence and presence of S9. The source says:
(§1) The genotoxicity can be measured by the ToxTracker® assay (Toxys, Leiden, The Netherlands) as further described herein. The ToxTracker® assay can be applied for pure substances or for compositions. The ToxTracker assay is a panel of six validated GFP-based mouse embryonic stem (mES) reporter cell lines that can be used to identify the biological reactivity and potential carcinogenic properties of newly developed compounds in a single test. ToxTracker is a mammalian stem cell-based assay that monitors activation of specific cellular signalling pathways for detection of the biological reactivity of compounds. In contrast to the cancer-derived cell lines that are currently used for in vitro genotoxicity testing, stem cells are genetically stable and proficient in all cellular pathways required for accurate detection of potentially carcinogenic properties of compounds. Extensive whole-genome transcription profiling has led to identification of a panel of biomarker genes that are preferentially activated upon exposure to different classes of carcinogens and toxicants. […] A compound is considered not genotoxic when it induces a smaller than 2-fold increase in GFP expression in any of the reporters measured by the ToxTracker® assay (Toxys, Leiden, The Netherlands).
(§2) The genotoxicity was measured by the ToxTracker® assay (Toxys, Leiden, The Netherlands), which can be applied for pure substances or for compositions. […]
(§3) The six independent mES reporter cell lines were seeded in gelatin-coated 96-well cell culture plates in 200 μl mES cell medium (50.000 cells per well). […] Induction of the GFP reporters was determined after 24 h exposure using a flow cytometer. Only GFP expression in intact single cells was determined. Mean GFP fluorescence was measured and used to calculate GFP reporter induction compared to a vehicle control treatment. Cytotoxicity was estimated by cell count after 24 h exposure using a flow cytometer and was expressed as percentage of intact cells after 24 h exposure compared to vehicle exposed controls. […]

In data set [2] the test system is Btg2-GFP reporter. It is filed as cell-based, mouse. The settings on record: 24 h exposure; in absence and presence of S9.
Description: as §1, §2, §3

In data set [3] the test system is Rtkn-GFP reporter. It is filed as cell-based, mouse. The following applies: 24 h exposure; in absence and presence of S9.
Description: as §1, §2, §3

The subject of data set [4] is GFP-based mouse embryonic stem (mES) reporter cell lines. The following applies: ToxTracker; positive = at least 2 fold increase in GFP expression in any reporter.
Description: The genotoxicity can be measured by the ToxTracker® assay (Toxys, Leiden, The Netherlands) as further described herein. The ToxTracker® assay can be applied for pure substances or for compositions. The ToxTracker assay is a panel of six validated GFP-based mouse embryonic stem (mES) reporter cell lines that can be used to identify the biological reactivity and potential carcinogenic properties of newly developed compounds in a single test. ToxTracker is a mammalian stem cell-based assay that monitors activation of specific cellular signalling pathways for detection of the biological reactivity of compounds. […] A compound is considered not genotoxic when it induces a smaller than 2-fold increase in GFP expression in any of the reporters measured by the ToxTracker® assay (Toxys, Leiden, The Netherlands).
as §2
The six independent mES reporter cell lines were seeded in gelatin-coated 96-well cell culture plates in 200 μl mES cell medium (50.000 cells per well). […] Induction of the GFP reporters was determined after 24 h exposure using a flow cytometer. Only GFP expression in intact single cells was determined. Mean GFP fluorescence was measured and used to calculate GFP reporter induction compared to a vehicle control treatment. […]

Each structure is given as a SMILES string.

With `O=C(CCN1CC1)OCC(CO)(COC(=O)CCN1CC1)COC(=O)CCN1CC1` [CL-427, 1-Aziridinepropanoic acid, 1,1′-[2-[[3-(1-aziridinyl)-1-oxopropoxy]methyl]-2-(hydroxymethyl)-1,3-propanediyl]ester], the “activation of the Bscl2-GFP reporter” value in data set [1] was “activated”. The “activation of the Btg2-GFP reporter” value in data set [2] is “activated”. The “activation of the Rtkn-GFP reporter” value in data set [3] was “activated”. Further, in data set [4], the genotoxicity conclusion entry is “considered genotoxic”.
